Experimental data published in patent US9546150B2, “Substituted quinazolin-4-ones for inhibiting ubiquitin specific protease 7” (HYBRIGENICS SA, priority 2011, dated 2017).

Key:
[1] = molecular target: T1, USP7 (Homo sapiens, UniProt Q93009); experiment: Direct binding to USP7 by ESI-MS; conditions: 50/50/1 H2O/CH3CN/HCOOH, Vc=120 V, Pi=4 mbar
[2] = system: HCT116 colon cancer cells; experiment: HCT116 cell viability and proliferation assay (MTS); type: cell-based; conditions: Homo sapiens, HCT-116, HCT116, 72 hours, read-out: Cell viability (MTS): HCT116 GI50 Day 3
Description: HCT116 colon cancer cells were obtained from ATCC (American Type Culture Collection), and maintained in Mc Coy's 5A medium containing 10% FBS, 3 mM glutamine and 1% penicillin/streptomycin. Cells were incubated at 37° C. in a humidified atmosphere containing 5% CO2.
Cell viability was assayed using the MTS technique in 96-well culture plates (CellTiter 96® Aqueous Non-Radioactive Cell Proliferation Assay, Promega) according to the manufacturer's instructions. MTS (3-(4,5-dimethyl-thiazol-2-yl)-5-(3-carboxy-methoxyphenyl)-2-(4-sulfophenyl)-2H-tetra-zolium) is a MTT-derived tetrazolium that is reduced in metabolically active cells into a soluble, cell-permeant formazan. The amount of formazan, detected by its absorbance at 492 nm is proportional to the number of living, metabolically active cells.
10^3 HCT116 cells were seeded per well. 24 hours later, the medium was changed and the cells treated in triplicate with the concentrations of each compound from 100 μM to 50 nM. The compounds were diluted in 100% DMSO, whose final concentration on cells was kept at 0.5%.
Cells were incubated with the compounds for 72 hours, and their viability then assayed by the addition of MTS for 2 hours. Absorbance at 492 nm was measured directly from the 96-well culture plates. GI50 (Growth Inhibition 50) concentrations for each compound were calculated using a sigmoidal variable slope fit (Prism 4.0, Graphpad Softwares). Values represent mean of three independent experiments.

[3] = molecular target: T2, CYLD (Homo sapiens, UniProt Q9NQC7); experiment: HAUbVS competition assay in HEK293 cell lysates, CYLD; type: biochemical; conditions: 12.5-200 μM
T2 sequence (Q9NQC7 1-956): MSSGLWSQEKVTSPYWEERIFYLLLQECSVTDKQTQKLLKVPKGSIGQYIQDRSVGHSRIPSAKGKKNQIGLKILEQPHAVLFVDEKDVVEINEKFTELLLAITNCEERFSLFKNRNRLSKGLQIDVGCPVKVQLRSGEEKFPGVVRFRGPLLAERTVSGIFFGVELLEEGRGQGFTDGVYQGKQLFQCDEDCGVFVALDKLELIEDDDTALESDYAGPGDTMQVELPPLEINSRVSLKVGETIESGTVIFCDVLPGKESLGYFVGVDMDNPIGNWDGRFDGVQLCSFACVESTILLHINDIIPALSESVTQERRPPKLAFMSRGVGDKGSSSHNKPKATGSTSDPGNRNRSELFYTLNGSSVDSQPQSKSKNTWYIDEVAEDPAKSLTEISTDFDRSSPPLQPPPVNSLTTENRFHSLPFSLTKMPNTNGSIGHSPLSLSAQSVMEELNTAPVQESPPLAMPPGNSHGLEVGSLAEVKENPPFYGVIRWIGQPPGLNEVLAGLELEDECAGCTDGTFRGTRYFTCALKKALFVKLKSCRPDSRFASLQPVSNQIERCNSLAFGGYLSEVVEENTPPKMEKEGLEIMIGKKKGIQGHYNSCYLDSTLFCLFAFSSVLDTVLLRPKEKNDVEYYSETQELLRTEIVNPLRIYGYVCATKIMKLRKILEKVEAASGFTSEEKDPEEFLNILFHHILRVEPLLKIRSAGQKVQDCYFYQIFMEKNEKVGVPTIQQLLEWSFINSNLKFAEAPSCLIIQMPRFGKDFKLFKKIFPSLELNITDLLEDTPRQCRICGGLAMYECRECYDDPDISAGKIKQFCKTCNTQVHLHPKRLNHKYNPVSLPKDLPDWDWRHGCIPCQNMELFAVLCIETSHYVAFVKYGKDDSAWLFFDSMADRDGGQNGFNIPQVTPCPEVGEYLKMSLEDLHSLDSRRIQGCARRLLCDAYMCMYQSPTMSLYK

[4] = molecular target: USP10 (Homo sapiens, UniProt Q14694); experiment: HAUbVS competition assay in HEK293 cell lysates, USP10; type: biochemical; conditions: 12.5-200 μM
Sequence of USP10 (Q14694 whole entry): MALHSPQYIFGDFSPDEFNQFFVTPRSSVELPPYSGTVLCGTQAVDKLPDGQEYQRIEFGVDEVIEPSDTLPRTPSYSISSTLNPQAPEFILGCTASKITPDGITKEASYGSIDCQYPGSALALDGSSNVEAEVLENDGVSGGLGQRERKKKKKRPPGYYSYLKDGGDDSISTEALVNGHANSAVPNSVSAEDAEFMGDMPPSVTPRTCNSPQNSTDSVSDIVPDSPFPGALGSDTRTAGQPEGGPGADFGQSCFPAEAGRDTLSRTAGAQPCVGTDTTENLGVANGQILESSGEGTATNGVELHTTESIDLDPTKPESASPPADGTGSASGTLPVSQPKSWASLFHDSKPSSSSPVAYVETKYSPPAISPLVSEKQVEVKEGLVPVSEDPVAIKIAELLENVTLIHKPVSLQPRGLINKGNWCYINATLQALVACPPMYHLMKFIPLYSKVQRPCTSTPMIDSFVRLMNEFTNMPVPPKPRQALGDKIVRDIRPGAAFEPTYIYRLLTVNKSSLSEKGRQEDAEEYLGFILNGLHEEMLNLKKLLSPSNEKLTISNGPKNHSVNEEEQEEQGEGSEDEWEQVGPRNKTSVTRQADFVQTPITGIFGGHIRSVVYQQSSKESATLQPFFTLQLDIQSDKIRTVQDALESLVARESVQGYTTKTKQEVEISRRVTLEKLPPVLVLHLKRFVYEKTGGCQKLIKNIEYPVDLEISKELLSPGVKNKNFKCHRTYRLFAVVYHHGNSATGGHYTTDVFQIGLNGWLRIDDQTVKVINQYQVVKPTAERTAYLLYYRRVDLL

[5] = molecular target: T3, UCH-L3 (Homo sapiens, UniProt P15374); experiment: HAUbVS competition assay in HEK293 cell lysates, UCH-L3; type: biochemical; conditions: 12.5-200 μM
T3 sequence (P15374 1-230): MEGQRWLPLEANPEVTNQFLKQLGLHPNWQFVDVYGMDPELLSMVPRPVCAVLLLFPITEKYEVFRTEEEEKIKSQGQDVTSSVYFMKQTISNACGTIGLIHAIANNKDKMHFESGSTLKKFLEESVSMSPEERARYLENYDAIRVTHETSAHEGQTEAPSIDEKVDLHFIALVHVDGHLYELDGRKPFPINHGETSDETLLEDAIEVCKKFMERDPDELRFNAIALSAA

[6] = molecular target: T1, USP7; experiment: HAUbVS competition assay in HEK293 cell lysates, USP7; type: biochemical; conditions: for blocking of HAUbVS labeling of USP7 (anti-USP7 antibody): HEK293 cell lysates, 12.5-200 μM, dose-dependent; for anti-HA immunoblot band at the size corresponding to HA-Ub-VS-USP7: lysed HEK293 cells, different doses, no change of the other bands
[7] = molecular target: T4, USP5 (Homo sapiens, UniProt P45974); experiment: HAUbVS competition assay in HEK293 cell lysates, USP5; type: biochemical; conditions: 12.5-200 μM
T4 sequence (P45974 1-858): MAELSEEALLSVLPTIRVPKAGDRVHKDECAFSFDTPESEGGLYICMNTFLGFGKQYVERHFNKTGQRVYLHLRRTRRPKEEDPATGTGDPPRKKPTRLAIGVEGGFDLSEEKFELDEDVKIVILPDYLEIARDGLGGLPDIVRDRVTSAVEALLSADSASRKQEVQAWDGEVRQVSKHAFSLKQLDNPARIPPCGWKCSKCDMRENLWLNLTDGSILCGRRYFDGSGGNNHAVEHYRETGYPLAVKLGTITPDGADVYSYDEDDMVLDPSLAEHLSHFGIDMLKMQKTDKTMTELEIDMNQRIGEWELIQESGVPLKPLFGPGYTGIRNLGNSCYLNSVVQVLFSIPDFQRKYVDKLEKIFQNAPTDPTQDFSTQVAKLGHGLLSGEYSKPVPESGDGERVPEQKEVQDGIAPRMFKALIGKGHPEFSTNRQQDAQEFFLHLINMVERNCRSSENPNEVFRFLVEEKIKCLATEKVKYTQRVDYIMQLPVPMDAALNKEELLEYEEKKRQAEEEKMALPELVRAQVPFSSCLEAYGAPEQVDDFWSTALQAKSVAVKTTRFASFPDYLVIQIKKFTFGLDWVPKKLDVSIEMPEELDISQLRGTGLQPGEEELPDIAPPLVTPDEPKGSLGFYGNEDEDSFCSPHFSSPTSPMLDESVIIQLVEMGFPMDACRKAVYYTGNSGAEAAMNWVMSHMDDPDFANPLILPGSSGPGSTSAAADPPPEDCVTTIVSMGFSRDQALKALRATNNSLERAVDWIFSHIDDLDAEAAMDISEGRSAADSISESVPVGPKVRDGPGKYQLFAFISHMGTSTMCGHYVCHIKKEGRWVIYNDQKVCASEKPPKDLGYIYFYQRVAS
Description: The HA-Ub-VS probe (Hemagglutin tag-Ubiquitin-Vinyl Sulfone) was used in this study to directly visualize the activity of all deubiquitinating enzymes from native proteomes.
HEK293 cells were harvested and lysed on ice with a non denaturating buffer containing Tris pH7.4, 50 mM; NaCl, 150 mM; MgCl2, 5 mM; EDTA, 0.5 mM; DTT, 2 mM; ATP (adenosine triphosphate), 2 mM; NP40 (nonyl phenoxypolyethoxylethanol), 0.5% and glycerol, 10%. Samples were incubated at 4° C. for 1 hour and clarified. Proteins were then quantified by Bradford method (Bio-Rad Protein Assay). […] The ubiquitin labeling reaction was initiated by the addition of HA-Ub-VS (8 μg/ml) in labeling buffer (Tris pH7.6, 50 mM; MgCl2, 5 mM; EDTA, 0.5 mM; DTT, 2 mM; ATP, 2 mM; sucrose, 250 mM) and incubated at room temperature for 15 min. Samples were next heated at 100° C. for 10 minutes and briefly sonicated. They were resolved by SDS-polyacrylamide gel electrophoresis (SDS-PAGE), transferred to a nitrocellulose membrane and probed with antibodies against USP7, HA, UCH-L3, CYLD, USP8, USP5, USP10 and Stat3. […] Signals were detected by enhanced chemiluminescence (ECL; Amersham) according to the reagent manufacturer's instructions.

T1 sequence (Q93009 whole entry): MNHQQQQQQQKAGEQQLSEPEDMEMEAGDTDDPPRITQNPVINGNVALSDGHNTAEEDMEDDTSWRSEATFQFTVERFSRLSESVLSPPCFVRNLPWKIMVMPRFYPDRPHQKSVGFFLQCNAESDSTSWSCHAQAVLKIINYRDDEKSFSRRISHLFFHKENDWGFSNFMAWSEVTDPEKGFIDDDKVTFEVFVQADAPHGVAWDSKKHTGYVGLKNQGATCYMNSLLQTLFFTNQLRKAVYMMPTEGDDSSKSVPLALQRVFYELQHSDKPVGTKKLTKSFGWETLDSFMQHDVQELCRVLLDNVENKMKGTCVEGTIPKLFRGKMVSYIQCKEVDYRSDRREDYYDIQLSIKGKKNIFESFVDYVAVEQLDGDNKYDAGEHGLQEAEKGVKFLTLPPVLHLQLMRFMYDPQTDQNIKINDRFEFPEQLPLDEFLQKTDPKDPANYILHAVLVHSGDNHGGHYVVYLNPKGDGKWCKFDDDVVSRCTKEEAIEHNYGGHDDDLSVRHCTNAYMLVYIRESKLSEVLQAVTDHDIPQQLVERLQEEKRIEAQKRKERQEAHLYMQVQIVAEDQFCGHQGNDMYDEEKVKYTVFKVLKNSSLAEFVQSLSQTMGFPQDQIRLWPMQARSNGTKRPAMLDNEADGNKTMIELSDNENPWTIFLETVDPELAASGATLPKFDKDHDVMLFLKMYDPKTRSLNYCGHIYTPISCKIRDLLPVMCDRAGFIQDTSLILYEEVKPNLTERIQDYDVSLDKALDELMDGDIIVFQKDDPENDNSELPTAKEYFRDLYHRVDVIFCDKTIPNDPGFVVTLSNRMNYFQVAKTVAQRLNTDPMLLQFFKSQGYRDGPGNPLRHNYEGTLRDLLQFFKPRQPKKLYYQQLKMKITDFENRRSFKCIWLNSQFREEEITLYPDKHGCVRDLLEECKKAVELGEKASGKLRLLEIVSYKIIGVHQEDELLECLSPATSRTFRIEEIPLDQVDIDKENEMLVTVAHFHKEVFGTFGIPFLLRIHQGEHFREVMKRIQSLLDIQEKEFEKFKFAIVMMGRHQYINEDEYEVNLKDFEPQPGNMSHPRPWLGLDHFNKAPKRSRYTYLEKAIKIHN

SMILES | binding to USP7 under dissociating conditions [1] | GI50 [2] [µM] | also measured
O=C(CCC1CCCC1)N1CCC(O)(Cn2cnc3ccccc3c2=O)CC1 [Example 3, 3-{[1-(3-cyclopentylpropanoyl)-4-hydroxypiperidin-4-yl]methyl}-3,4-dihydroquinazolin-4-one] | no binding was observed | 93 | 
O=C(CCC1CCCC1)N1CCC(O)(Cn2cnc3cc(Cl)ccc3c2=O)CC1 [Example 4, 7-chloro-3-{[1-(3-cyclopentylpropanoyl)-4-hydroxypiperidin-4-yl]methyl}-3,4-dihydroquinazolin-4-one] |  | 19 | 
CC(Cc1cccs1)C(=O)N1CCC(O)(Cn2cnc3ccccc3c2=O)CC1 (stereo not shown) [Example 5, 3-({4-hydroxy-1-[2-methyl-3-(thiophen-2-yl)propanoyl]piperidin-4-yl}methyl)-3,4-dihydroquinazolin-4-one] | no binding was observed | 113 | blocking of HAUbVS labeling of CYLD [3]: without any cross-reaction; blocking of HAUbVS labeling of USP10 [4]: without any cross-reaction; blocking of HAUbVS labeling of USP5 [7]: without any cross-reaction; blocking of HAUbVS labeling of UCH-L3 [5]: without any cross-reaction; blocking of HAUbVS labeling of USP7 (anti-USP7 antibody) [6]: efficiently blocked labeling of USP7; anti-HA immunoblot band at the size corresponding to HA-Ub-VS-USP7 [6]: almost completely eliminated
COc1cc2ncn(CC3(O)CCN(C(=O)C(C)C)CC3)c(=O)c2cc1OC [Example 7, 3-{[4-hydroxy-1-(2-methylpropanoyl)piperidin-4-yl]methyl}-6,7-dimethoxy-3,4-dihydroquinazolin-4-one] |  | > 500 | 
CC(Cc1cccs1)C(=O)N1CCC(O)(Cn2cnc3cc(Cl)ccc3c2=O)CC1 (stereo not shown) [Example 11, 7-chloro-3-({4-hydroxy-1-[2-methyl-3-(thiophen-2-yl)propanoyl]piperidin-4-yl}methyl)-3,4-dihydroquinazolin-4-one] |  | 25 | 
CC(Cc1ccccc1)C(=O)N1CCC(O)(Cn2cnc3ccccc3c2=O)CC1 (stereo not shown) [Example 13, 3-{[1-(2-benzylpropanoyl)-4-hydroxypiperidin-4-yl]methyl}-3,4-dihydroquinazolin-4-one] |  | 103 | 

Continued, in another order:

binding to USP7 under dissociating conditions [1] | GI50 [2] [µM] | SMILES | also measured
no binding was observed | > 500 | O=C(CCc1ccccc1)N1CCC(O)(Cn2cnc3ccccc3c2=O)CC1 [Example 1, 3-{[4-hydroxy-1-(3-phenylpropanoyl)piperidin-4-yl]methyl}-3,4-dihydroquinazolin-4-one] | 
no binding was observed | 67 | O=C(CCc1ccccc1)N1CCC(O)(Cn2cnc3cc(Cl)ccc3c2=O)CC1 [Example 2, 7-chloro-3-{[4-hydroxy-1-(3-phenylpropanoyl)piperidin-4-yl]methyl}-3,4-dihydroquinazolin-4-one] | blocking of HAUbVS labeling of CYLD [3]: without any cross-reaction; blocking of HAUbVS labeling of USP10 [4]: without any cross-reaction; blocking of HAUbVS labeling of UCH-L3 [5]: without any cross-reaction; blocking of HAUbVS labeling of USP7 (anti-USP7 antibody) [6]: efficiently blocked labeling of USP7; anti-HA immunoblot band at the size corresponding to HA-Ub-VS-USP7 [6]: almost completely eliminated
 | 253 | O=C(CCc1cccs1)N1CCC(O)(Cn2cnc3ccccc3c2=O)CC1 [Example 12, 3-({4-hydroxy-1-[3-(thiophen-2-yl)propanoyl]piperidin-4-yl}methyl)-3,4-dihydroquinazolin-4-one] | 
 | 28 | CC(Cc1ccccc1)C(=O)N1CCC(O)(Cn2cnc3cc(Cl)ccc3c2=O)CC1 (stereo not shown) [Example 14, 3-{[1-(2-benzylpropanoyl)-4-hydroxypiperidin-4-yl]methyl}-7-chloro-3,4-dihydroquinazolin-4-one] | 
